Reference: PubChem BioAssay AID296 (DTP/NCI, 2004)
Where “and” joins values, the source holds several entries; their conditions need not be identical. Equal values may be shown once. Records with an inconclusive call do not appear.

Test system: MX-1 breast xenograft, nude mice, tumor weight T/C
Experiment: NCI In Vivo Anticancer Drug Screen. Data for tumor model Human Mammary Carcinoma MX-1 Xenograft (intrarenal inoculation) in NU/NU Swiss (nude) mice
Conditions: endpoint: mean tumor weight change, higher = larger tumour
Procedure, shortened: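 Tumor-bearing mice were treated with test compound alongside a vehicle-treated control group. Survival or tumor size was measured, and activity is expressed as the treated-group value divided by the control-group value.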

[1] = dose: 25.0 mg/kg/injection, schedule: Q01DX010 (sc), vehicle: Klucel (hydroxypropylcellulose) (HPC)
[2] = dose: 50.0 mg/kg/injection, schedule: Q01DX010 (sc), vehicle: Klucel (hydroxypropylcellulose) (HPC)
[3] = dose: 200.0 mg/kg/injection, schedule: Q01DX010 (sc), vehicle: Klucel (hydroxypropylcellulose) (HPC)
[4] = dose: 200.0 mg/kg/injection, schedule: Q04DX003 (sc), vehicle: saline with Tween-80
[5] = dose: 400.0 mg/kg/injection, schedule: Q04DX003 (sc), vehicle: saline with Tween-80
[6] = dose: 800.0 mg/kg/injection, schedule: Q04DX003 (sc), vehicle: saline with Tween-80
[7] = dose: 1600.0 mg/kg/injection, schedule: Q04DX003 (sc), vehicle: saline with Tween-80

CC(C)(C)NC(C1=CC(C)(C)c2ccccc2C1=O)c1ccccc1 (stereo not drawn)
T/C (dose: 150.0 mg/kg/injection, schedule: Q04DX003 (ip), vehicle: Klucel (hydroxypropylcellulose) (HPC)): 87 % of control | T/C (dose: 300.0 mg/kg/injection, schedule: Q04DX003 (ip), vehicle: Klucel (hydroxypropylcellulose) (HPC)): 75 % of control

O=S1(=O)CS(=O)(=O)OCCO1
T/C (dose: 37.5 mg/kg/injection, schedule: Q04DX003 (sc), vehicle: Klucel (hydroxypropylcellulose) (HPC)): 25 % of control | T/C (dose: 75.0 mg/kg/injection, schedule: Q04DX003 (sc), vehicle: Klucel (hydroxypropylcellulose) (HPC)): 42 % of control | T/C (dose: 150.0 mg/kg/injection, schedule: Q04DX003 (sc), vehicle: Klucel (hydroxypropylcellulose) (HPC)): 7 % of control

CC(=O)OCC1OC([S-])C(OC(C)=O)C(OC(C)=O)C1OC(C)=O.CC[PH+](CC)CC.CC[PH+](CC)CC.[Au].[Au] (stereo not drawn)
T/C (dose: 0.32 mg/kg/injection, schedule: Q04DX003 (sc), vehicle: Klucel (hydroxypropylcellulose) (HPC)): 88 % of control | T/C (dose: 0.63 mg/kg/injection, schedule: Q04DX003 (sc), vehicle: Klucel (hydroxypropylcellulose) (HPC)): 112 % of control | T/C (dose: 1.25 mg/kg/injection, schedule: Q04DX003 (sc), vehicle: Klucel (hydroxypropylcellulose) (HPC)): 100 % of control | T/C (dose: 2.5 mg/kg/injection, schedule: Q04DX003 (sc), vehicle: Klucel (hydroxypropylcellulose) (HPC)): 87 % of control

CN(C)C=O
T/C (dose: 200.0 mg/kg/injection, schedule: Q01DX010 (sc), vehicle: saline): 10 % of control | T/C (dose: 1896.0 mg/kg/injection, schedule: Q01DX010 (sc), vehicle: suspension in saline): 1 % of control | T/C (dose: 2844.0 mg/kg/injection, schedule: Q01DX010 (sc), vehicle: suspension in saline): -44 % of control | T/C (dose: 4266.0 mg/kg/injection, schedule: Q01DX010 (sc), vehicle: suspension in saline): -11 % of control

CC/C(=C(\c1ccccc1)c1ccc(OCCN(C)C)cc1)c1ccccc1
T/C [1]: 171 % of control | T/C [2]: 178 % of control | T/C (dose: 100.0 mg/kg/injection, schedule: Q01DX010 (sc), vehicle: Klucel (hydroxypropylcellulose) (HPC)): 83 % of control | T/C (dose: 100.0 mg/kg/injection, schedule: Q04DX003 (sc), vehicle: suspension in saline): 61 % of control | T/C [3]: 240 % of control | T/C (dose: 200.0 mg/kg/injection, schedule: Q04DX003 (sc), vehicle: suspension in saline): 68 % of control | T/C (dose: 400.0 mg/kg/injection, schedule: Q04DX003 (sc), vehicle: suspension in saline): 89 % of control | T/C (dose: 800.0 mg/kg/injection, schedule: Q04DX003 (sc), vehicle: suspension in saline): 73 % of control

COC1=C(N)C(=O)c2nc(-c3nc(C(=O)O)c(C)c(-c4ccc(OC)c(OC)c4O)c3N)ccc2C1=O
T/C (dose: 0.13 mg/kg/injection, schedule: Q01DX010 (sc), vehicle: saline): 15 % of control and 18 % of control | T/C (dose: 0.5 mg/kg/injection, schedule: Q01DX010 (sc), vehicle: saline): -77 % of control and -75 % of control

COC1=C(OC)C(=O)C(C/C=C(\C)CC/C=C(\C)CC/C=C(\C)CC/C=C(\C)CC/C=C(\C)CC/C=C(\C)CC/C=C(\C)CC/C=C(\C)CC/C=C(\C)CCC=C(C)C)=C(C)C1=O
T/C (dose: 400.0 mg/kg/injection, schedule: Q01DX010 (sc), vehicle: saline with Tween-80): 153 % of control | T/C (dose: 800.0 mg/kg/injection, schedule: Q01DX010 (sc), vehicle: saline with Tween-80): 118 % of control

CC1=C(/C=C/C(C)=C/C=C/C(C)=C/CO)C(C)(C)CCC1
T/C [4]: 89 % of control | T/C [5]: 112 % of control | T/C [6]: 84 % of control | T/C [7]: 96 % of control

CN=C(N)N/N=C(\C)c1ccc2c(c1)Cc1cc(/C(C)=N/NC(N)=NC)ccc1-2
T/C (dose: 6.0 mg/kg/injection, schedule: Q04DX003 (sc), vehicle: saline with Tween-80): 46 % of control | T/C (dose: 12.0 mg/kg/injection, schedule: Q04DX003 (sc), vehicle: saline with Tween-80): 84 % of control | T/C (dose: 24.0 mg/kg/injection, schedule: Q04DX003 (sc), vehicle: saline with Tween-80): 100 % of control | T/C (dose: 48.0 mg/kg/injection, schedule: Q04DX003 (sc), vehicle: saline with Tween-80): 58 % of control

OC(CCl)CN1CC[N+]2(CC1)CC[N+]1(CCN(CC(O)CCl)CC1)CC2 (stereo not drawn)
T/C (dose: 8.0 mg/kg/injection, schedule: Q01DX010 (sc), vehicle: water): 117 % of control | T/C (dose: 32.0 mg/kg/injection, schedule: Q01DX010 (ip), vehicle: water): 90 % of control | T/C (dose: 64.0 mg/kg/injection, schedule: Q01DX010 (ip), vehicle: water): 88 % of control | T/C (dose: 64.0 mg/kg/injection, schedule: Q01DX010 (sc), vehicle: water): 92 % of control and 94 % of control | T/C (dose: 106.66 mg/kg/injection, schedule: Q04DX003 (ip), vehicle: water): 30 % of control | T/C (dose: 106.66 mg/kg/injection, schedule: Q04DX003 (sc), vehicle: water): 45 % of control | T/C (dose: 128.0 mg/kg/injection, schedule: Q01DX010 (ip), vehicle: water): 21 % of control | T/C (dose: 213.33 mg/kg/injection, schedule: Q04DX003 (ip), vehicle: water): 52 % of control | T/C (dose: 213.33 mg/kg/injection, schedule: Q04DX003 (sc), vehicle: water): 59 % of control | T/C (dose: 256.0 mg/kg/injection, schedule: Q01DX010 (ip), vehicle: water): 27 % of control | T/C (dose: 426.65 mg/kg/injection, schedule: Q04DX003 (ip), vehicle: water): 26 % of control | T/C (dose: 426.65 mg/kg/injection, schedule: Q04DX003 (sc), vehicle: water): 49 % of control | T/C (dose: 512.0 mg/kg/injection, schedule: Q01DX010 (sc), vehicle: water): 25 % of control

CC/C(=C(/CC)c1ccc(O)cc1)c1ccc(O)cc1
T/C (dose: 75.0 mg/kg/injection, schedule: Q04DX003 (sc), vehicle: saline with Tween-80): 66 % of control | T/C (dose: 150.0 mg/kg/injection, schedule: Q04DX003 (sc), vehicle: saline with Tween-80): 47 % of control | T/C (dose: 300.0 mg/kg/injection, schedule: Q04DX003 (sc), vehicle: saline with Tween-80): 48 % of control | T/C (dose: 600.0 mg/kg/injection, schedule: Q04DX003 (sc), vehicle: saline with Tween-80): 55 % of control

O=S(=O)(c1ccccc1)N1CN2CCN(C2)C1
T/C [4]: 58 % of control | T/C [5]: 81 % of control | T/C [6]: 65 % of control | T/C [7]: 48 % of control

C=CCNc1ccc(C)cc1
T/C [1]: 97 % of control | T/C [2]: 69 % of control and 70 % of control | T/C [3]: 70 % of control and 76 % of control | T/C (dose: 400.0 mg/kg/injection, schedule: Q01DX010 (sc), vehicle: Klucel (hydroxypropylcellulose) (HPC)): 16 % of control

C=CCc1cn(C2CC(O)C(CO)O2)c(=O)[nH]c1=O (stereo not drawn)
T/C (dose: 300.0 mg/kg/injection, schedule: Q04DX003 (sc), vehicle: saline): 121 % of control | T/C (dose: 600.0 mg/kg/injection, schedule: Q04DX003 (sc), vehicle: saline): 114 % of control | T/C (dose: 1200.0 mg/kg/injection, schedule: Q04DX003 (sc), vehicle: saline): 93 % of control | T/C (dose: 2400.0 mg/kg/injection, schedule: Q04DX003 (sc), vehicle: saline): 97 % of control

C1OC1CO[C@@H]1CO[C@H]2[C@@H]1OC[C@H]2OCC1CO1 (stereo partly drawn)
T/C (dose: 50.0 mg/kg/injection, schedule: Q01DX010 (sc), vehicle: saline with Tween-80): 45 % of control | T/C (dose: 100.0 mg/kg/injection, schedule: Q01DX010 (sc), vehicle: saline with Tween-80): 112 % of control | T/C (dose: 200.0 mg/kg/injection, schedule: Q01DX010 (sc), vehicle: saline with Tween-80): 24 % of control

C[Si](C)(C)O/C=C1/CCOC1=O
T/C (dose: 1200.0 mg/kg/injection, schedule: Q04DX003 (sc), vehicle: suspension in saline): 105 % of control | T/C (dose: 2400.0 mg/kg/injection, schedule: Q04DX003 (sc), vehicle: suspension in saline): 157 % of control

NCCCC(N)(C(=O)O)C(F)F (stereo not drawn)
T/C (dose: 300.0 mg/kg/injection, schedule: Q04DX003 (sc), vehicle: distilled water + alcohol): 110 % of control | T/C (dose: 600.0 mg/kg/injection, schedule: Q04DX003 (sc), vehicle: distilled water + alcohol): 83 % of control | T/C (dose: 1200.0 mg/kg/injection, schedule: Q04DX003 (sc), vehicle: distilled water + alcohol): 73 % of control | T/C (dose: 2400.0 mg/kg/injection, schedule: Q04DX003 (sc), vehicle: distilled water + alcohol): 112 % of control

Nc1nnc[se]1
T/C (dose: 100.0 mg/kg/injection, schedule: Q04DX003 (sc), vehicle: saline with Tween-80): 54 % of control | T/C [7]: 74 % of control
